Molecules are shown by their SMILES. Entries after “also recorded” stand apart in the source; their conditions may differ.

The text below walks through data of patent publication US20250027050A1, “LONG-TERM CULTURE OF COLORECTAL EPITHELIAL CELLS” (ISM CO., LTD., priority 2021, published 2025).

Format in all cases: cell-based
In experiment [1] the test system is Primary human colonic epithelial cells (HCoEpiC). The experiment is described as follows: Long-term culture of primary human colonic epithelial cells in the presence of low molecular weight compounds (cell number, morphology). The following applies: for cell morphology during long-term culture: 10 μM Y-27632 solely added, after 72 days of culture; for continued growth / long-term culture of colorectal epithelial cells (number of cells): complete medium with 10 μM Y-27632 solely added, culture continued for 72 days, compared with A, C, YA, YC groups. On the procedure: Regarding Primary human colonic epithelial cells (HCoEpiC), Lot No. 17030 was purchased from ScienCell Research Laboratories, Inc. (SCR, Carlsbad, CA, United States) and used. A complete medium containing 5 mL of a colonic epithelial cell growth supplement (CoEpiCGS, SCR) and 5 mL of penicillin/streptomycin (P/S, SCR) added to 500 mL of a colonic epithelial cell medium (CoEpiCM, SCR) as a basal medium was used as a medium. To investigate the effect on release of exosomes, 10 μM Y-27632 (ROCK inhibitor) (Wako), 0.5 μM A-83-01 (ALK5/7/4 selective inhibitor) (Wako), and 3 μM CHIR99021 (GSK-3 inhibitor) (Axon Medchem, Reston, VA) were used. Cells were completely dissolved in a water bath at 37° C. and seeded on 10 mL of the complete medium in a 10-cm dish coated with poly-L-lysine (poly-[…] 2 μg/cm^2, SCR) at 2.5×10^5 cells/dish. On the following day, the medium was replaced with a fresh complete medium. The medium was replaced with a complete medium every 3 or 4 days until 70% confluency was reached and then every other day while 70% to 90% confluency was reached. Cells reaching 90% confluency were removed using a 0.05% trypsin/EDTA solution (T/E, SCR) and seeded onto a 12-well plate (Fisher-brand 12-well tissue culture plate with a flat bottom) at 2×10^4 cells/well. Twenty four hours later, the medium was replaced with a complete medium containing or not containing Y-27632 (10 μM), and thereafter the medium was replaced every other day until 90% confluency was reached. When 90% confluency was reached, the cells were subcultured again, and the above-described procedures were continued for 72 days.

For experiment [2] the test system is unchanged. Description: Particle diameter and particle number in culture supernatant by NanoSight. On the procedure:
(§1) Cells were completely dissolved in a water bath at 37° C. and seeded on 10 mL of the complete medium in a 10-cm dish coated with poly-L-lysine (poly-[…] 2 μg/cm^2, SCR) at 2.5×10^5 cells/dish. On the following day, the medium was replaced with a fresh complete medium. The medium was replaced with a complete medium every 3 or 4 days until 70% confluency was reached and then every other day while 70% to 90% confluency was reached. Cells reaching 90% confluency were removed using a 0.05% trypsin/EDTA solution (T/E, SCR) and seeded onto a 12-well plate (Fisher-brand 12-well tissue culture plate with a flat bottom) at 2×10^4 cells/well. Twenty four hours later, the medium was replaced with a complete medium containing or not containing Y-27632 (10 μM), and thereafter the medium was replaced every other day until 90% confluency was reached. When 90% confluency was reached, the cells were subcultured again, and the above-described procedures were continued for 72 days. The culture supernatant in the culture was recovered, and the particle diameter and the particle number were measured using a nanoparticle analysis system NanoSight (NS300, Malvern Panalytical Ltd.). Then, the signal intensities of exosome markers, CD9 and CD63, in the recovered culture supernatant were measured by an ExoScreen assay.

Experiment [3] has the same test system. Description: ExoScreen assay of exosome markers CD9 and CD63 in culture supernatant. On the procedure:
as §1

As for `C[C@@H](N)[C@H]1CC[C@H](C(=O)Nc2ccncc2)CC1` [Y-27632, (1R,4r)-4-((R)-1-aminoethyl)-N-(pyridin-4-yl)cyclohexanecarboxamide], in experiment [1], the “cell morphology during long-term culture” value is “the morphology was unchanged” and the “continued growth / long-term culture of colorectal epithelial cells (number of cells)” value is “continued growth over the longest period; also recorded: allowed long-term culture of colorectal epithelial cells”. Further, in experiment [1] (listed as Y), the “cell morphology during long-term culture” value is given as “no morphological change was observed” and the “continued growth / long-term culture of colorectal epithelial cells (number of cells)” value was “Long-term culture was enabled”. For the same compound, in experiment [2] (Day 72 of culture, presence vs absence of Y-27632), the “particle number concentration in the medium” value is “higher in the absence of Y-27632”. The “particle diameter of released vesicles” value in experiment [2] (culture supernatants at Day 28, Day 35, Day 72, Y(+) vs Y(−)) is reported as “unchanged”. Moreover, the “exosomes detected using CD9 and CD63 markers (signal intensity)” value in experiment [3] (culture supernatant of HCoEpiC cultured in the presence vs absence of Y-27632) was “more exosomes were detected”. The “decrease of CD9(+) exosomes after repeated passages” value in experiment [3] (in the presence of Y-27632, fraction decreased) is recorded as “about ⅓”.
